Measurements as given in ChEMBL document CHEMBL1921690, “Synthesis and evaluation of pyridone-phenoxypropyl-R-2-methylpyrrolidine analogues as histamine H3 receptor antagonists” (Bioorg Med Chem Lett, 2011).
Each block holds one compound with its values, some of them ahead of it.

Legend:
Histamine H3 receptor [1] = target: T1, Histamine H3 receptor (Homo sapiens, UniProt Q9Y5N1); assay: Displacement of [3H]NAMH from human histamine H3 receptor expressed in CHO cells; format: cell-based
Histamine H3 receptor [2] = target: Histamine H3 receptor (Rattus norvegicus, UniProt Q9QYN8); assay: Displacement of [3H]NAMH from rat histamine H3 receptor expressed in CHO cells; format: cell-based
[3] = Half life in mouse liver microsomes; format: ADME, Microsome
[4] = Half life in rat at 1 mg/kg, iv; format: ADME, organism-based; set-up: dose 1 mg/kg, route intravenous; conditions: in vivo
Rattus norvegicus [5] = assay: Induction of wake promoting activity in ip dosed Sprague-Dawley rat EEG/EMG model assessed as increase in AUC of wake latency after 4 hrs post dosing; format: functional, organism-based
Rattus norvegicus [6] = assay: Induction of wake promoting activity in Sprague-Dawley rat EEG/EMG model assessed as maximum cumulative wake surplus time at 10 mg/kg, ip measured after 22 hrs post dosing; format: functional; conditions: route intraperitoneal
Histamine H1 receptor = Histamine H1 receptor (Homo sapiens, UniProt P35367); assay: Binding affinity to human histamine H1 receptor
[7] = Half life in rat liver microsomes; format: ADME, Microsome
Histamine H4 receptor = Histamine H4 receptor (Homo sapiens, UniProt Q9H3N8); assay: Binding affinity to human histamine H4 receptor
[8] = Volume of distribution in rat at 1 mg/kg, iv; format: ADME, organism-based; set-up: dose 1 mg/kg, route intravenous; conditions: in vivo
Rattus norvegicus [9] = assay: Induction of wake promoting activity in Sprague-Dawley rat EEG/EMG model assessed as time for recovered sleep latency per hrat 30 mg/kg, ip measured after 6 to 22 hrs post dosing; format: functional; conditions: route intraperitoneal
[10] = AUC (0 to t) in rat at 5 mg/kg, po; format: ADME, organism-based; set-up: dose 5 mg/kg, route oral; conditions: plasma
Rattus norvegicus [11] = assay: Inhibition of RAMH-induced dipsogenia in ip dosed rat dipsogenia model; format: functional
Rattus norvegicus [12] = assay: Induction of wake promoting activity in Sprague-Dawley rat EEG/EMG model assessed as maximum cumulative wake surplus time at 10 mg/kg, ip measured after 3 hrs post dosing; format: functional; conditions: route intraperitoneal
Cytochrome P450 3A4 = Cytochrome P450 3A4 (Homo sapiens, UniProt P08684); assay: Inhibition of CYP3A4; format: ADME
[13] = Cmax in rat at 5 mg/kg, po; format: ADME, organism-based; set-up: dose 5 mg/kg, route oral; conditions: in vivo
[14] = Ratio of drug level in brain to plasma in rat at 5 mg/kg, po; format: ADME, organism-based; set-up: dose 5 mg/kg, route oral; conditions: read-out: BPR
[15] = Drug level in rat brain at 10 mg/kg, ip after 1 hr; format: ADME, organism-based; set-up: dose 10 mg/kg, route intraperitoneal; conditions: read-out: Drug uptake
Rattus norvegicus [16] = assay: Induction of wake promoting activity in Sprague-Dawley rat EEG/EMG model assessed as fold increase in wake latency at 30 mg/kg, ip measured after 4 hrs post dosing relative to control; format: functional; conditions: route intraperitoneal
Cytochrome P450 2C9 = Cytochrome P450 2C9 (Homo sapiens, UniProt P11712); assay: Inhibition of CYP2C9; format: ADME
[17] = Oral bioavailability in rat at 5 mg/kg; format: ADME, organism-based; conditions: in vivo
Cytochrome P450 1A2 = target: T2, Cytochrome P450 1A2 (Homo sapiens, UniProt P05177); assay: Inhibition of CYP1A2; format: ADME
T2 sequence (P05177 whole entry): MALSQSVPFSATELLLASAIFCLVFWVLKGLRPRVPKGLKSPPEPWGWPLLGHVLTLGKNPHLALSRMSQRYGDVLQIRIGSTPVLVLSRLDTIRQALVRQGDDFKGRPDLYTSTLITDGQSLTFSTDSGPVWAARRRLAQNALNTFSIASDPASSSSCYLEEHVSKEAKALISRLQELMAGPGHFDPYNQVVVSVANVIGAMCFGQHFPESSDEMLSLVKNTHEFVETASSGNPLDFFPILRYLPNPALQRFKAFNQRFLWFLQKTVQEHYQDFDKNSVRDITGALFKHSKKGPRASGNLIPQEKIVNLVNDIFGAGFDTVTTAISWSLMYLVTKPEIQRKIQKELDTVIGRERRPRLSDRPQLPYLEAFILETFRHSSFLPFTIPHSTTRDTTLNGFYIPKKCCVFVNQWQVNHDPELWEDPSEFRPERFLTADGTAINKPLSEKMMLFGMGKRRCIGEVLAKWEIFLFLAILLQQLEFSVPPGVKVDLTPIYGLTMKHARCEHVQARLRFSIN

Histamine H2 receptor = Histamine H2 receptor (Homo sapiens, UniProt P25021); assay: Binding affinity to human histamine H2 receptor
Rattus norvegicus [18] = assay: Induction of wake promoting activity in Sprague-Dawley rat EEG/EMG model assessed as AUC of cumulative wake time at 30 mg/kg, ip measured after 4 hrs post dosing (reference value: 114 +/- 9 mins); format: functional; conditions: route intraperitoneal
Histamine H3 receptor [19] = target: T1, Histamine H3 receptor; assay: Antagonist activity at human histamine H3 receptor expressed in CHO cells assessed as inhibition of RAHM-induced [35S]GTPgammaS binding after 4 hrs by beta liquid scintillation counting; format: functional, cell-based
Rattus norvegicus [20] = assay: Induction of wake promoting activity in Sprague-Dawley rat EEG/EMG model assessed as surplus wake time at 30 mg/kg, ip measured after 22 hrs post dosing; format: functional; conditions: route intraperitoneal
[21] = Half life in monkey liver microsomes; format: ADME, Macaca mulatta, Microsome; conditions: rhesus monkey
Cytochrome P450 2C19 = Cytochrome P450 2C19 (Homo sapiens, UniProt P33261); assay: Inhibition of CYP2C19; format: ADME
[22] = Ratio of drug level in brain to plasma in rat at 10 mg/kg, ip after 1 hr; format: ADME, organism-based; set-up: dose 10 mg/kg, route intraperitoneal; conditions: read-out: BPR
Cytochrome P450 2D6 = Cytochrome P450 2D6 (Homo sapiens, UniProt P10635); assay: Inhibition of CYP2D6; format: ADME
[23] = Half life in human liver microsomes; format: ADME, Microsome
[24] = Clearance in rat at 1 mg/kg, iv; format: ADME, organism-based; set-up: dose 1 mg/kg, route intravenous; conditions: in vivo
Rattus norvegicus [25] = assay: Induction of wake promoting activity in Sprague-Dawley rat EEG/EMG model assessed as increase of wake latency at 30 mg/kg, ip measured after 4 hrs post dosing; format: functional; conditions: route intraperitoneal
[26] = Aqueous solubility of compound at pH 7.4; format: physicochemical
Histamine H3 receptor [27] = target: T1, Histamine H3 receptor; assay: Inhibition of basal activity of human histamine H3 receptor expressed in CHO cells assessed as inhibition of RAHM-induced [35S]GTPgammaS binding after 4 hrs by beta liquid scintillation counting; format: functional, cell-based
Rattus norvegicus [28] = assay: Induction of wake promoting activity in Sprague-Dawley rat EEG/EMG model assessed as retained wake latency at 30 mg/kg, ip measured after 22 hrs post dosing; format: functional; conditions: route intraperitoneal
Rattus norvegicus [29] = assay: Induction of wake promoting activity in Sprague-Dawley rat EEG/EMG model assessed as AUC of cumulative wake time at 10 mg/kg, ip measured after 4 hrs post dosing (reference value: 114 +/- 9 mins); format: functional; conditions: route intraperitoneal
Rattus norvegicus [30] = assay: Induction of wake promoting activity in Sprague-Dawley rat EEG/EMG model assessed as time to maximal cumulative wake surplus at 30 mg/kg, ip measured after 6 hrs post dosing; format: functional; conditions: route intraperitoneal

T1 sequence (Q9Y5N1 whole entry): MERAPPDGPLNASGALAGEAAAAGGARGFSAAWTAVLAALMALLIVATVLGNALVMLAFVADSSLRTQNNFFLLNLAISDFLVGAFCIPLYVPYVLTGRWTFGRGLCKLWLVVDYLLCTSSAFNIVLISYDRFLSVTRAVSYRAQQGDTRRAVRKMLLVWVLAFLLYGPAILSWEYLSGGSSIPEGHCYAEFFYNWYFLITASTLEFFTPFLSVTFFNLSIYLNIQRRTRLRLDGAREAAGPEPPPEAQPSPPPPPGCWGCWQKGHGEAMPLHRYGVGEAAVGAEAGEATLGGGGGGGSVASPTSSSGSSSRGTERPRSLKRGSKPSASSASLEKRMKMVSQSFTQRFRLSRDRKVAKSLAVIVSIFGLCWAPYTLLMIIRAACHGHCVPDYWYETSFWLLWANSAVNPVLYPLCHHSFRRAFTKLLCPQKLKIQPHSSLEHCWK
Sequence of Histamine H3 receptor (Rattus norvegicus, UniProt Q9QYN8) (Q9QYN8 whole entry): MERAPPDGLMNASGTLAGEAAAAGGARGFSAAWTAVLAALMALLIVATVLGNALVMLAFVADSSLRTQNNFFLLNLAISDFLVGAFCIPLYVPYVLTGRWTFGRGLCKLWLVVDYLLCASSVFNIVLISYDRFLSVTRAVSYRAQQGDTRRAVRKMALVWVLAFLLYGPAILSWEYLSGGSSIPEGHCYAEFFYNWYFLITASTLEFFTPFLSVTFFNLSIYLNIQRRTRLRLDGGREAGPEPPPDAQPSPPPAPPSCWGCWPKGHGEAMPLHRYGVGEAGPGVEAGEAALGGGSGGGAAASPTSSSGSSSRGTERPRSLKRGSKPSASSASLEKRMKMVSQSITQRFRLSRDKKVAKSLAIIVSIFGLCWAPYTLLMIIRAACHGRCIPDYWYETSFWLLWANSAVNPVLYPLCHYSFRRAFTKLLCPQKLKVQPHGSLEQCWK
Sequence of Cytochrome P450 3A4 (P08684 whole entry): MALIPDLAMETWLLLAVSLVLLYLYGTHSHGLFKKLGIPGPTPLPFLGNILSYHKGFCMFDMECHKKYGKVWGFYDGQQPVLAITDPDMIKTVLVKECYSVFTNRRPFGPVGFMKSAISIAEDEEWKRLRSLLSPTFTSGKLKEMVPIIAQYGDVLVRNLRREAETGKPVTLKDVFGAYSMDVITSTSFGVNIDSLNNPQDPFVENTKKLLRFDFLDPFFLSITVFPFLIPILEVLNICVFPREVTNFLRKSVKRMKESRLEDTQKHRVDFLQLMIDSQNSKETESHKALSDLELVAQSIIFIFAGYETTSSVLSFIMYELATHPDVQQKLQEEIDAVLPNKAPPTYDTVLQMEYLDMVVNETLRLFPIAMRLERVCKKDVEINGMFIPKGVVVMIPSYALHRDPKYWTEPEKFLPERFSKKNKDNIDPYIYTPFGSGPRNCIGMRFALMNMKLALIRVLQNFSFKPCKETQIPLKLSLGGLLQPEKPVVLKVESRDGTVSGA
Sequence of Cytochrome P450 2C19 (P33261 whole entry): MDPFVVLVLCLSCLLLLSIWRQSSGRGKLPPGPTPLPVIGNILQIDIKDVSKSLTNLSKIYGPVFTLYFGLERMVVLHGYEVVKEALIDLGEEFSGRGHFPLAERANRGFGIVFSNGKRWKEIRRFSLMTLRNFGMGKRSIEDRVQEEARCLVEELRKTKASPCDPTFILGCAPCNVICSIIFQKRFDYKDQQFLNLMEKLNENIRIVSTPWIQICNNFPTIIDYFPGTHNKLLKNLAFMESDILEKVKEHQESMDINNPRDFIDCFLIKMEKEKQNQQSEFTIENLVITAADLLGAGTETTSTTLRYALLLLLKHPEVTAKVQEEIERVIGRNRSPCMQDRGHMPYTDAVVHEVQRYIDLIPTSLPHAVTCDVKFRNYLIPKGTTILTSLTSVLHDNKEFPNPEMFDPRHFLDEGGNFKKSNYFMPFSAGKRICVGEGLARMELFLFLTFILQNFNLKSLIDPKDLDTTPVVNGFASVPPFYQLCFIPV
Sequence of Cytochrome P450 2D6 (P10635 whole entry): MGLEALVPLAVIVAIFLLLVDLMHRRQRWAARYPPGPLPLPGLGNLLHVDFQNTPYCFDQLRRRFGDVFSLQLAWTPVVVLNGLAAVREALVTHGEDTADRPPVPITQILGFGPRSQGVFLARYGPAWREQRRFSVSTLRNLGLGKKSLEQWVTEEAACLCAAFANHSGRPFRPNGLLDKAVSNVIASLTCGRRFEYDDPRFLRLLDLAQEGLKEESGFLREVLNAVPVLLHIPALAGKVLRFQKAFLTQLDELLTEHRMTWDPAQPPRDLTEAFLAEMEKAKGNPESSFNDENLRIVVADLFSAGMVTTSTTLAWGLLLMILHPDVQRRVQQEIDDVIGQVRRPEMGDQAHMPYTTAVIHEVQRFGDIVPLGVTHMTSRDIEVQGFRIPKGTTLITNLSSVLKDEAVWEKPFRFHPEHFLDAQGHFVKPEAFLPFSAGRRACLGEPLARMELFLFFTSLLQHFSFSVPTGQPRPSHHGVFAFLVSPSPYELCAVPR
Sequence of Cytochrome P450 2C9 (P11712 whole entry): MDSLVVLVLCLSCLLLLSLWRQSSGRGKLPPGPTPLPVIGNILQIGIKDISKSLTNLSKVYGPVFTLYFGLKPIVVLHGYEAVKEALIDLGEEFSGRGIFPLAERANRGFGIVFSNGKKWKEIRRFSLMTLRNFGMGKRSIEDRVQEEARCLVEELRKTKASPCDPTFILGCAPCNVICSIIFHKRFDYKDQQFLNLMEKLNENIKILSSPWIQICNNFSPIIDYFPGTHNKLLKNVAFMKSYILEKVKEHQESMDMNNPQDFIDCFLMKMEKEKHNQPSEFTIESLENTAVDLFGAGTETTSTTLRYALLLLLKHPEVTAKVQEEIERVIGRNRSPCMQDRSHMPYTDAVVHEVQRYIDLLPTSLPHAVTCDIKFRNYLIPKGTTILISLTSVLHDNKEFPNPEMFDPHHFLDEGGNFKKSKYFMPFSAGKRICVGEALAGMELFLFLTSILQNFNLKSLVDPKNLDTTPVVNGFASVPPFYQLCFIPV
Sequence of Histamine H2 receptor (P25021 whole entry): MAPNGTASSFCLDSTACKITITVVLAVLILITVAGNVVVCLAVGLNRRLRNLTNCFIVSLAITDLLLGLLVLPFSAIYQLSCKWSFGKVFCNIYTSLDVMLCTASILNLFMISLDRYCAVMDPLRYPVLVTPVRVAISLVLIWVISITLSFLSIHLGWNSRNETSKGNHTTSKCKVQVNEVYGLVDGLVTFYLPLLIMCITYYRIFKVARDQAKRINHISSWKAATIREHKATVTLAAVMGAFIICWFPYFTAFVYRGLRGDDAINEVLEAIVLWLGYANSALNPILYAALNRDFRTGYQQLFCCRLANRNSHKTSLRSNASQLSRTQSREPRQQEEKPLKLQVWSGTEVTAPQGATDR
Sequence of Histamine H1 receptor (P35367 whole entry): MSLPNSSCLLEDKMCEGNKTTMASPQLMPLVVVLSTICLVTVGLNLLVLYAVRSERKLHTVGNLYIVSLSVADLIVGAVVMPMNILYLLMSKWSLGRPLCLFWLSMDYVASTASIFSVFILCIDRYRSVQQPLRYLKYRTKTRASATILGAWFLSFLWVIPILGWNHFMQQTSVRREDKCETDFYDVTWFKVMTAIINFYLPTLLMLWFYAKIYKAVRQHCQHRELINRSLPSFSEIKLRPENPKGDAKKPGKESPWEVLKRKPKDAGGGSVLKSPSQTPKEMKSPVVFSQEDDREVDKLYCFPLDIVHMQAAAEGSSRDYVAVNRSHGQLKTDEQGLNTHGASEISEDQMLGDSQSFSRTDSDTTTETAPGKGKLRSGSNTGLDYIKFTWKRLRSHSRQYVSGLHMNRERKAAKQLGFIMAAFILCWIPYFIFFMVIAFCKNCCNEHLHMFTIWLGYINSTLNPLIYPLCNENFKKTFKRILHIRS

Ki (Histamine H3 receptor [1]): 18 nM
Ki (Histamine H3 receptor [2]): 144 nM
Compound: C[C@@H]1CCCN1CCCOc1ccc(-c2cccn(C)c2=O)cc1

half-life [3]: > 40 min
half-life [4]: 84 min
Ki (Histamine H1 receptor): > 10000 nM
half-life [7]: > 40 min
Ki (Histamine H4 receptor): > 10000 nM
Vd [8]: 1.4 L/kg
AUC(0-t) [10]: 0.867 µg·h/mL
IC50 (Cytochrome P450 3A4): > 30000 nM
Cmax [13]: 0.19 µg/mL
Kp [14]: 1.7
concentration at 1 h [15]: 2.9 µM
IC50 (Cytochrome P450 2C9): > 30000 nM
bioavailability [17]: 11%
IC50 (Cytochrome P450 1A2): > 30000 nM
Ki (Histamine H3 receptor [1]): 0.7 nM
Ki (Histamine H2 receptor): > 10000 nM
Kb (Histamine H3 receptor [19]): 0.2 nM
half-life [21]: > 40 min
IC50 (Cytochrome P450 2C19): > 30000 nM
Kp at 1 h [22]: 1.9
IC50 (Cytochrome P450 2D6): > 30000 nM
half-life [23]: > 40 min
clearance [24]: 0.66 L/h/kg
Ki (Histamine H3 receptor [2]): 8.5 nM
solubility [26]: > 0.3 mg/mL
EC50 (Histamine H3 receptor [27]): 0.7 nM
Compound: C[C@@H]1CCCN1CCCOc1ccc(-c2ccc(=O)n(C)c2)cc1
Activity (Rattus norvegicus [5]): Dose-dependent effect
Time (Rattus norvegicus [6]): 33 min
Time (Rattus norvegicus [9]): 6.3 min
ED50 (Rattus norvegicus [11]): 0.03 mg/kg
inhibition (Rattus norvegicus [11]): Dose-dependent effect
Time (Rattus norvegicus [12]): 53 min
fold change (FC) (Rattus norvegicus [16]): 2
Time (Rattus norvegicus [18]): 227 min
Time (Rattus norvegicus [20]): 51 min
Activity (Rattus norvegicus [25]): 95%
Activity (Rattus norvegicus [28]): 35%
Time (Rattus norvegicus [29]): 160 min
Time (Rattus norvegicus [30]): 146 min

bioavailability [17]: 8%
Ki (Histamine H3 receptor [1]): 0.9 nM
clearance [24]: 2.52 L/h/kg
Ki (Histamine H3 receptor [2]): 2.4 nM
Compound: C[C@@H]1CCCN1CCCOc1ccc(-c2cn(C)c(=O)c3ccccc23)cc1

Ki (Histamine H3 receptor [1]): 3.2 nM
Ki (Histamine H3 receptor [2]): 12 nM
Compound: C[C@@H]1CCCN1CCCOc1ccc(-c2ccn(C)c(=O)c2)cc1

bioavailability [17]: 0%
Ki (Histamine H3 receptor [1]): 7.7 nM
clearance [24]: 5.76 L/h/kg
Ki (Histamine H3 receptor [2]): 9 nM
Compound: C[C@@H]1CCCN1CCCOc1ccc(-c2ccc(=O)[nH]c2)cc1

Ki (Histamine H3 receptor [1]): 4.7 nM
Ki (Histamine H3 receptor [2]): 9.6 nM
Compound: C[C@@H]1CCCN1CCCOc1ccc(-c2ccc(=O)n(-c3ccc(F)cc3)c2)cc1

Ki (Histamine H3 receptor [1]): 112 nM
Ki (Histamine H3 receptor [2]): > 500 nM
Compound: C[C@@H]1CCCN1CCCOc1cccc(-c2ccc(=O)n(C)c2)c1

Ki (Histamine H3 receptor [1]): 4.9 nM
Ki (Histamine H3 receptor [2]): 21 nM
Compound: C[C@@H]1CCCN1CCCOc1ccc(-c2cccc(=O)n2C)cc1

Ki (Histamine H3 receptor [1]): 3.4 nM
Ki (Histamine H3 receptor [2]): 3 nM
Compound: C[C@@H]1CCCN1CCCOc1ccc(-c2cc(C#N)c(=O)n(C)c2)cc1

bioavailability [17]: 17%
Ki (Histamine H3 receptor [1]): 1.8 nM
clearance [24]: 8.28 L/h/kg
Ki (Histamine H3 receptor [2]): 19 nM
Compound: C[C@@H]1CCCN1CCCOc1ccc(-c2ccc(=O)n(-c3ccccc3)c2)cc1

Ki (Histamine H3 receptor [1]): 3.5 nM
Ki (Histamine H3 receptor [2]): 7.9 nM
Compound: C[C@@H]1CCCN1CCCOc1ccc(-c2cc(-c3ccccc3)c(=O)n(C)c2)cc1

bioavailability [17]: 0%
Ki (Histamine H3 receptor [1]): 2 nM
clearance [24]: 10.3 L/h/kg
Ki (Histamine H3 receptor [2]): 10 nM
Compound: C[C@@H]1CCCN1CCCOc1ccc(-c2ccc(=O)n(Cc3ccccc3)c2)cc1
